{
  "source": "patent US11207331B2",
  "about": "“Agents, compositions and methods for enhancing neurological function” (University of Southern California, priority 2007, dated 2021)",
  "key": {"β-amyloid": {"tested_on": "β-amyloid", "assay": "β-amyloid expression with antibody 6E10 (Western blot, immunostaining)", "type": "in vivo, mouse", "conditions": "for decrease of 56 kDa β-amyloid (Aβ*56) band intensity vs vehicle: cortex", "description": "In a pilot project to determine the impact of longterm exposure to THP, the impact of THP, 10 mg/kg s.c. thrice weekly for 3 months, on the progression of Alzheimer's disease (AD) pathology in 3-6 month old 3×TgAD mice was investigated. Mouse brain hemisphere sections were immunostained with specific antibody (6E10) against Aβ or HT7, which recognizes tau and PHF-tau between residue 159 and 163 and visualized with FITC conjugated second antibody.\nIn another experiment, THP (10 mg/kg/week, administered once a week for 6 months) was administered to 9- and 12-month male mice transgenic for Alzheimer's disease (3×Tg-AD). The 9 month old animals were started on THP at 3 months of age prior to the development of beta amyloid, whereas the 12 month old animals were begun at 6 months of age when beta amyloid had already begun to accumulate within neurons. Typically, the development of intraneuronal beta amyloid is seen in 6 and 9 month old animals and the development of plaques in 12 month old animals. Plaques are rarely seen in 9 month old animals.\nBrain sections were stained with beta amyloid antibody 6E10.\nTHP (10 mg/kg) or vehicle was transdermal treated once a week to 3-month-old 3×Tg-AD mice for 6 months. Western blot analysis was conducted using brain protein from hippocampus with beta amyloid antibody 6E10, which recognizes the abnormally processed isoforms, as well as precursor forms of beta amyloid protein.\nTHP (10 mg/kg) or vehicle was subcutaneously administered once a month, once per week for 6 months, or once every other day for 3 months. Brain sections of treated mice were stained with beta amyloid antibody 6E10 which recognizes the abnormally processed isoforms, as well as precursor forms of beta amyloid protein.\nFurther studies were conducted using a dosing regime of once a week for six months administered subcutaneously. Three and six months old 3×Tg-AD and age-matched non-Tg mice were chosen for the experiments, since AD pathology (Aβ) starts development at 3-month and abundant accumulation at 6-months. Allopregnanolone was subcutaneously (s.c.) administrated with 10 mg/kg once per week for 6 months. For neurogenesis and neurosurvival study, BrdU, IdU and CIdU were intraperitoneal (i.p.) injected at the first 5 days, mid 5 days and 5 days before sacrifice during 6-month treatment. After 6 months of allopregnanolone treatment, mice, at 9- and 12-month old, were sacrificed.\nWestern blot analysis was conducted using brain protein from frontal-parietal-temporal cortex with beta amyloid antibody 6E10, which recognizes the abnormally processed isoforms, as well as precursor forms of beta amyloid protein. The expression of different forms of beta amyloid in 3×Tg-AD mice was characterized."}, "3×TgAD and non-Tg mice": {"tested_on": "3×TgAD and non-Tg mice", "assay": "Trace eyeblink conditioning, learning and memory", "type": "in vivo, mouse", "conditions": "for memory performance nine days after learning trial / learning performance: 3 months; for learning performance: 10 mg/kg s.c. once", "description": "Under deep anesthesia by intraperitoneal (i.p.) injection with ketamine (100 mg/kg i.p.) and xylazine (25 mg/kg i.p.), a 4 pin head stage (DIGI-KEY) was cemented to the skull of 3 month old male mouse with dental acrylic. The connector has four Teflon-coated stainless steel wires and one bare stainless steel wire (0.003″ bare and 0.0055″ coated, A-M Systems, Inc.). The bare wire was attached via a gold pin (Time Electronics) to the head stage. Coated wires were implanted s.c. in the orbicularis oculi dorsal to the left upper eyelid to record the EMG and s.c. periorbitally to deliver the shock US (3). All animals were then placed on a warm isothermal pad after surgery to recovery for 30 min. After surgery, mice were individually housed, provided with ad libitum access to food and water, and maintained on a 12 hr light/dark cycle.\nAfter one week of acclimation to the colony room, mice with no obvious adverse responses to surgery were randomly assigned to an experimental condition. Mice were injected subcutaneously (s.c.) with 10 mg/kg THP or vehicle followed one hour later with an IP injection of BrdU (100 mg/kg). Following injection of test compound, mice were returned to their home cage for 7 days prior to onset of behavioral testing.\nDuring the first day of training, mice were placed within Plexiglas cylinders in a sound-attenuated chamber and were habituated to the test environment for one session consisting of 30 stimulus-free trials at 30-60 sec inter-trial intervals while spontaneous eye-blink activity was recorded using electromyographic (EMG) activity recorded from the obicularis oculi dorsal to the orbit during each trial. EMG activity was rectified, and integrated using custom designed computational Labview routines.\nFollowing habituation to the test environment mice underwent a learning phase and were trained for five days. Mice were trained by pairing delivery of a tone (CS, 250 msec, 2 kHz, 85 dB) as the conditioned stimulus followed by a 250 msec period of no stimuli, followed by the periobital shock as the unconditioned stimulus (US, 100 msec). Mice received two blocks of 30 trials per day (30-60-sec inter-trial intervals, 3-4-h inter-block intervals). This trace eye-blink conditioning paradigm is subthreshold for inducing neurogenesis. The unpaired group received random tone at the same magnitude as the paired conditioning and shock with 15-30 sec as inter-trial intervals and a total of 60 trials for one session per day. Shock intensity was adjusted daily for each mouse to elicit a head-movement response. Following the learning phase, mice were returned to their home cage for eight days followed on the ninth day by a single session to assess memory of the conditioned response. The percentage of CR was computed as the ratio of the number of CRs to the total number of valid trials. Animals were perfused at the end of the memory trial day.\nTo determine if there was a functional consequence of THP-induced neurogenesis, the impact of THP on both the learning and memory of a behavioral task shown to be dependent upon the generation of new neurons in the dentate gyrus, delayed trace conditioning was assessed. 3×TgAD and non-Tg background mice were prepared for behavioral testing and received a single s.c. injection of THP (10 mg/kg once) or vehicle 7 days prior to start of the learning trial. After injection, mice were housed for 7 days before the training process started. The rationale for the 7 day interim between exposure to THP and the start of the behavioral experiment was to allow time for the proliferation, migration and integration of newly generated neurons into the dentate gyrus.\nFollowing the 7 day interim period, the behavioral testing commenced with a 5 day (2×30 trials/day) training learning phase to assess rate and magnitude learning performance. After the learning trial, mice were returned to their home cage for another 9 day period and subsequently tested for memory of the learned association. […]"}},
  "note": "“Also recorded” adds a separate entry of the source.",
  "data": [
    {"smiles": "CC(=O)[C@H]1CC[C@H]2[C@@H]3CC[C@H]4C[C@H](O)CC[C@]4(C)[C@H]3CC[C@]12C", "note": "[THP, 3α-hydroxy-5α-pregnan-20-one]", "values": [
      {"measurement": "immunocytochemical detection of Abeta*56", "setting": "β-amyloid; 10 mg/kg once a week for six months", "result": "substantially decreases Abeta*56 in hippocampal neurons"},
      {"measurement": "6E10 immunoreactivity", "setting": "β-amyloid; 10 mg/kg s.c. every other day for 3 months or once a week for 6 months", "result": "significantly decreases 6E10 immunoreactivity"},
      {"measurement": "6E10 immunoreactivity", "setting": "β-amyloid; 10 mg/kg s.c. once a month", "result": "no effect"},
      {"measurement": "6E10 / intraneuronal Aβ immunoreactivity in brain sections", "setting": "β-amyloid; 3×Tg-AD mice, once a week for 6 months", "result": "lower in THP-treated brain region CA1, Cortex and Amygdala than vehicle treated-brain, but not in the subiculum; also recorded: lower in THP-treated 9-month old 3×Tg-AD mice hippocampus, cortex, and amygdala than in vehicle-treated brain, but not in subiculum"},
      {"measurement": "AD pathology markers (Aβ 6E10, tau HT7 immunoreactivity)", "setting": "β-amyloid; 3×TgAD mice, 10 mg/kg s.c. thrice weekly for 3 months", "result": "reduced the level of AD pathology markers in 3×TgAD mouse hippocampal CA1"},
      {"measurement": "reduction of Aβ 6-mer 27 kDa band intensity", "setting": "β-amyloid; 9-month 3×Tg-AD mice, 10 mg/kg s.c. once a week for 6 months", "result": "35±10", "unit": "%"},
      {"measurement": "decrease of 56 kDa β-amyloid (Aβ*56) band intensity vs vehicle", "setting": "β-amyloid; 9-month old 3×Tg-AD mice, 10 mg/kg s.c. once a week for 6 months", "result": "25±4", "unit": "%"},
      {"measurement": "Aβ 6-mer 27 kDa band intensity vs vehicle", "setting": "β-amyloid; 12-month old 3×Tg mice", "result": "no difference"},
      {"measurement": "decrease of 56 kDa β-amyloid (Aβ*56) band intensity vs vehicle", "setting": "β-amyloid; 12-month old 3×Tg-AD mice, 10 mg/kg s.c. once a week for 6 months", "result": "15±4", "unit": "%"},
      {"measurement": "decrease of 28 kDa β-amyloid oligomer band intensity vs vehicle", "setting": "β-amyloid; transdermal 10 mg/kg once a week for 6 months, 9-month old 3×Tg-AD mice, hippocampus", "result": "39±13", "unit": "%"},
      {"measurement": "memory performance nine days after learning trial", "setting": "3×TgAD and non-Tg mice; 3×TgAD mice", "result": "significant increase in memory"},
      {"measurement": "learning performance", "setting": "3×TgAD and non-Tg mice; 3×TgAD mice", "result": "significantly increased the learning performance"},
      {"measurement": "learning level (conditioned response) at the end of training", "setting": "3×TgAD and non-Tg mice; 3×TgAD mice, 6-months-old, 10 mg/kg", "result": "39.2±9.2", "unit": "%"},
      {"measurement": "memory test 9 days after acquisition phase", "setting": "3×TgAD and non-Tg mice; 3×TgAD mice, 6 months", "result": "significantly increased the retention of the conditioned response rate"},
      {"measurement": "final level of learning", "setting": "3×TgAD and non-Tg mice; 3×TgAD mice, 9-months-old", "result": "23.6±4.0", "unit": "%"},
      {"measurement": "memory performance after 9 days vs vehicle", "setting": "3×TgAD and non-Tg mice; 3×TgAD mice, 9-months-old", "result": "significantly better memory performance"},
      {"measurement": "final level of learning", "setting": "3×TgAD and non-Tg mice; 3×TgAD mice, 12-months-old", "result": "14.9±3.6", "unit": "%"},
      {"measurement": "memory deficit vs vehicle-treated non-Tg mice", "setting": "3×TgAD and non-Tg mice; 3×TgAD mice, 12-months-old", "result": "not reversed"},
      {"measurement": "learning rate and final level of learning", "setting": "3×TgAD and non-Tg mice; 3×TgAD mice, 15-month-old", "result": "did not affect the learning rate nor the final levels of learning"},
      {"measurement": "% CR", "setting": "3×TgAD and non-Tg mice; 3×TgAD mice, memory phase", "result": 53.96, "unit": "%"},
      {"measurement": "memory performance nine days after learning trial", "setting": "3×TgAD and non-Tg mice; non-Tg mice", "result": "did not significantly augment the memory performance"},
      {"measurement": "learning performance", "setting": "3×TgAD and non-Tg mice; non-Tg mice", "result": "did not augment the learning performance"},
      {"measurement": "memory retention", "setting": "3×TgAD and non-Tg mice; non-Tg mice, 6 months", "result": "no effect"},
      {"measurement": "maximal conditioned response rate", "setting": "3×TgAD and non-Tg mice; non-Tg mice, 6 months, 10 mg/kg", "result": "30.4±7.7", "unit": "%"},
      {"measurement": "final level of learning", "setting": "3×TgAD and non-Tg mice; non-Tg mice, 9-months-old", "result": "20.6±4.1", "unit": "%"},
      {"measurement": "memory test performance", "setting": "3×TgAD and non-Tg mice; non-Tg mice, 9-months-old", "result": "no significant effect"},
      {"measurement": "final level of learning", "setting": "3×TgAD and non-Tg mice; non-Tg mice, 12-months-old", "result": "25.4±6", "unit": "%"},
      {"measurement": "memory performance", "setting": "3×TgAD and non-Tg mice; non-Tg mice, 12-months-old", "result": "modest improved memory performance which was not significantly better than vehicle-treated group"},
      {"measurement": "maximum level of learning", "setting": "3×TgAD and non-Tg mice; non-Tg mice, 15-months-old", "result": "29.6±5.5", "unit": "%"}
    ]}
  ]
}
